Results: ChEMBL document CHEMBL1201862, “PubChem BioAssay data set” (2004)
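Following 48 hours of exposure in 96-well plates, responses at five concentrations were used to interpolate endpoints linearly. Here, GI50 denotes the concentration required for 50% inhibition of growth.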 Active and inactive are the calls of the source. No stated cut-off is given here; in the data, active = GI50 up to about 1.1 µM and inactive = higher.

Experiments:
Experiment in all cases: NCI tumour cell line growth inhibition, 48 h
SK-OV-3 = system: SK-OV-3
CCRF-CEM = system: CCRF-CEM
NCI-H226 = system: NCI-H226
HCC 2998 = system: HCC 2998
SF-539 = system: SF-539
COLO 205 = system: COLO 205
M19-MEL = system: M19-MEL
NCI-H522 = system: NCI-H522
HCT-15 = system: HCT-15
CAKI-1 = system: CAKI-1
OVCAR-5 = system: OVCAR-5
ACHN = system: ACHN
A549 = system: A549
SN12C = system: SN12C
XF498 = system: XF498
SF-268 = system: SF-268
OVCAR-8 = system: OVCAR-8
HT-29 = system: HT-29
SK-MEL-28 = system: SK-MEL-28
RXF 631 = system: RXF 631
LOX IMVI = system: LOX IMVI
MOLT-4 = system: MOLT-4
UACC-62 = system: UACC-62
Malme-3M = system: Malme-3M
DLD-1 = system: DLD-1
K562 = system: K562
UACC-257 = system: UACC-257
DMS-114 = system: DMS-114
KM12 = system: KM12
A498 = system: A498
M14 = system: M14
KM-20L2 = system: KM-20L2
RPMI-8226 = system: RPMI-8226
OVCAR-3 = system: OVCAR-3
EKVX = system: EKVX
SF-295 = system: SF-295
HOP-62 = system: HOP-62
HCT-116 = system: HCT-116
SK-MEL-2 = system: SK-MEL-2
UO-31 = system: UO-31
LXFL 529 = system: LXFL 529
SNB-75 = system: SNB-75
HL-60 = system: HL-60
SNB-19 = system: SNB-19
SW-620 = system: SW-620
SNB-78 = system: SNB-78
NCI-H460 = system: NCI-H460
HOP-18 = system: HOP-18
DMS-273 = system: DMS-273
SR = system: SR
TK-10 = system: TK-10
786-0 = system: 786-0
OVCAR-4 = system: OVCAR-4
SK-MEL-5 = system: SK-MEL-5
HOP-92 = system: HOP-92
U-251 = system: U-251
NCI-H23 = system: NCI-H23
IGROV-1 = system: IGROV-1
RXF 393 = system: RXF 393

With `CCNC(=O)N(CC)CN(CC)C(=O)NCC` the GI50 (SK-OV-3) was > 100 µM (inactive), the GI50 (CCRF-CEM) was > 100 µM (inactive) and the GI50 (NCI-H226) was > 100 µM (inactive). The GI50 (HCC 2998) was > 100 µM (inactive), the GI50 (SF-539) was > 100 µM (inactive) and the GI50 (COLO 205) was > 100 µM (inactive). For the same molecule, the GI50 (M19-MEL) was > 100 µM (inactive), the GI50 (NCI-H522) was > 100 µM (inactive) and the GI50 (HCT-15) was > 100 µM. For the same molecule, the GI50 (CAKI-1) was > 100 µM (inactive), the GI50 (OVCAR-5) was > 100 µM (inactive) and the GI50 (ACHN) was > 100 µM (inactive). The GI50 (A549) was > 100 µM (inactive), the GI50 (SN12C) was > 100 µM (inactive) and the GI50 (XF498) was > 100 µM (inactive). The GI50 (SF-268) was > 100 µM (inactive), the GI50 (OVCAR-8) was > 100 µM (inactive) and the GI50 (HT-29) was > 100 µM (inactive). For the same molecule, the GI50 (SK-MEL-28) was > 100 µM (inactive), the GI50 (RXF 631) was > 100 µM (inactive) and the GI50 (LOX IMVI) was > 100 µM (inactive). The GI50 (MOLT-4) was > 100 µM (inactive), the GI50 (UACC-62) was > 100 µM (inactive) and the GI50 (Malme-3M) was > 100 µM (inactive). The GI50 (DLD-1) was > 100 µM (inactive), the GI50 (K562) was > 100 µM (inactive) and the GI50 (UACC-257) was > 100 µM (inactive). The GI50 (DMS-114) was > 100 µM (inactive), the GI50 (KM12) was > 100 µM (inactive) and the GI50 (A498) was > 100 µM (inactive). For the same molecule, the GI50 (M14) was > 100 µM (inactive), the GI50 (KM-20L2) was > 100 µM (inactive) and the GI50 (RPMI-8226) was > 100 µM (inactive). For the same molecule, the GI50 (OVCAR-3) was > 100 µM (inactive), the GI50 (EKVX) was > 100 µM (inactive) and the GI50 (SF-295) was > 100 µM (inactive). The GI50 (HOP-62) was > 100 µM (inactive), the GI50 (HCT-116) was > 100 µM (inactive) and the GI50 (SK-MEL-2) was > 100 µM (inactive). For the same molecule, the GI50 (UO-31) was > 100 µM (inactive), the GI50 (LXFL 529) was > 100 µM (inactive) and the GI50 (SNB-75) was > 100 µM (inactive). The GI50 (HL-60) was > 100 µM (inactive), the GI50 (SNB-19) was > 100 µM (inactive) and the GI50 (SW-620) was > 100 µM (inactive). The GI50 (SNB-78) was > 100 µM (inactive).

In the case of `Cn1cnc([N+](=O)[O-])c1Sc1ccccn1`, the GI50 (SK-OV-3) is reported as > 100 µM (inactive), the GI50 (CCRF-CEM) is reported as 48.9 µM (inactive) and the GI50 (NCI-H226) is reported as > 100 µM (inactive). The GI50 (NCI-H460) was > 100 µM (inactive), the GI50 (HOP-18) was 14.9 µM (inactive) and the GI50 (HCC 2998) was > 100 µM (inactive). For the same molecule, the GI50 (SF-539) was > 100 µM (inactive), the GI50 (COLO 205) was 76.4 µM (inactive) and the GI50 (M19-MEL) was > 100 µM (inactive). The GI50 (NCI-H522) was 74.3 µM (inactive), the GI50 (CAKI-1) was > 100 µM (inactive) and the GI50 (OVCAR-5) was > 100 µM (inactive). The GI50 (ACHN) was > 100 µM (inactive), the GI50 (A549) was > 100 µM (inactive) and the GI50 (SN12C) was > 100 µM (inactive). The GI50 (XF498) was 36.3 µM (inactive), the GI50 (SF-268) was > 100 µM (inactive) and the GI50 (OVCAR-8) was > 100 µM (inactive). The GI50 (HT-29) was > 100 µM (inactive), the GI50 (SK-MEL-28) was > 100 µM (inactive) and the GI50 (RXF 631) was > 100 µM (inactive). The GI50 (DMS-273) was > 100 µM (inactive), the GI50 (LOX IMVI) was > 100 µM (inactive) and the GI50 (MOLT-4) was 38.5 µM (inactive). The GI50 (UACC-62) was > 100 µM (inactive), the GI50 (Malme-3M) was 68.4 µM (inactive) and the GI50 (SR) was 50.6 µM (inactive). The GI50 (DLD-1) was > 100 µM (inactive), the GI50 (K562) was > 100 µM (inactive) and the GI50 (UACC-257) was > 100 µM (inactive). For the same molecule, the GI50 (DMS-114) was > 100 µM (inactive), the GI50 (TK-10) was > 100 µM (inactive) and the GI50 (KM12) was > 100 µM (inactive). The GI50 (786-0) was > 100 µM (inactive), the GI50 (OVCAR-4) was > 100 µM (inactive) and the GI50 (A498) was > 100 µM (inactive). The GI50 (SK-MEL-5) was > 100 µM (inactive), the GI50 (HOP-92) was > 100 µM (inactive) and the GI50 (M14) was > 100 µM (inactive). The GI50 (U-251) was > 100 µM (inactive), the GI50 (RPMI-8226) was > 100 µM (inactive) and the GI50 (OVCAR-3) was > 100 µM (inactive). For the same molecule, the GI50 (EKVX) was > 100 µM (inactive), the GI50 (SF-295) was > 100 µM (inactive) and the GI50 (HOP-62) was > 100 µM (inactive). For the same molecule, the GI50 (HCT-116) was > 100 µM (inactive), the GI50 (SK-MEL-2) was 74.6 µM (inactive) and the GI50 (UO-31) was 87.1 µM (inactive). The GI50 (LXFL 529) was 70.5 µM (inactive), the GI50 (SNB-75) was > 100 µM (inactive) and the GI50 (SNB-19) was > 100 µM (inactive). The GI50 (NCI-H23) was > 100 µM (inactive), the GI50 (SW-620) was > 100 µM (inactive) and the GI50 (IGROV-1) was > 100 µM (inactive). The GI50 (SNB-78) was > 100 µM (inactive).

With `Cc1ccccc1C1=C(C(=O)Nc2ccc(Cl)c(Cl)c2)NC(=S)NC1N` (stereo not drawn) the GI50 (SK-OV-3) was > 100 µM (inactive), the GI50 (CCRF-CEM) was > 100 µM (inactive) and the GI50 (NCI-H460) was > 100 µM (inactive). The GI50 (RXF 393) was > 100 µM (inactive), the GI50 (HOP-18) was > 100 µM (inactive) and the GI50 (SF-539) was > 100 µM (inactive). For the same molecule, the GI50 (COLO 205) was > 100 µM (inactive), the GI50 (M19-MEL) was > 100 µM (inactive) and the GI50 (NCI-H522) was > 100 µM (inactive). The GI50 (HCT-15) was > 100 µM, the GI50 (CAKI-1) was > 100 µM (inactive) and the GI50 (OVCAR-5) was 82.6 µM (inactive). The GI50 (ACHN) was > 100 µM (inactive), the GI50 (A549) was > 100 µM (inactive) and the GI50 (SN12C) was > 100 µM (inactive). The GI50 (XF498) was > 100 µM (inactive), the GI50 (SF-268) was > 100 µM (inactive) and the GI50 (OVCAR-8) was > 100 µM (inactive). For the same molecule, the GI50 (HT-29) was > 100 µM (inactive), the GI50 (SK-MEL-28) was > 100 µM (inactive) and the GI50 (RXF 631) was > 100 µM (inactive). The GI50 (DMS-273) was > 100 µM (inactive), the GI50 (LOX IMVI) was > 100 µM (inactive) and the GI50 (MOLT-4) was > 100 µM (inactive). The GI50 (UACC-62) was > 100 µM (inactive), the GI50 (Malme-3M) was > 100 µM (inactive) and the GI50 (DLD-1) was > 100 µM (inactive). For the same molecule, the GI50 (K562) was > 100 µM (inactive), the GI50 (UACC-257) was > 100 µM (inactive) and the GI50 (DMS-114) was > 100 µM (inactive). The GI50 (TK-10) was > 100 µM (inactive), the GI50 (KM12) was > 100 µM (inactive) and the GI50 (786-0) was > 100 µM (inactive). For the same molecule, the GI50 (OVCAR-4) was > 100 µM (inactive), the GI50 (A498) was > 100 µM (inactive) and the GI50 (SK-MEL-5) was > 100 µM (inactive). The GI50 (M14) was > 100 µM (inactive), the GI50 (KM-20L2) was > 100 µM (inactive) and the GI50 (U-251) was > 100 µM (inactive). For the same molecule, the GI50 (RPMI-8226) was > 100 µM (inactive), the GI50 (OVCAR-3) was > 100 µM (inactive) and the GI50 (EKVX) was > 100 µM (inactive). The GI50 (HCT-116) was > 100 µM (inactive), the GI50 (SK-MEL-2) was > 100 µM (inactive) and the GI50 (UO-31) was > 100 µM (inactive). The GI50 (LXFL 529) was > 100 µM (inactive), the GI50 (SNB-75) was > 100 µM (inactive) and the GI50 (SNB-19) was > 100 µM (inactive). The GI50 (NCI-H23) was > 100 µM (inactive), the GI50 (SW-620) was > 100 µM (inactive) and the GI50 (IGROV-1) was > 100 µM (inactive). The GI50 (SNB-78) was > 100 µM (inactive).
